# Measured values published in article PMC4957076, “Shared mechanism of teratogenicity of anti-angiogenic drugs identified in the chicken embryo model” (Scientific Reports, 2016).
# Legend:
# HUVEC cells = assay: Endothelial cell proliferation assay (CCK-8); type: cell-based, Human; conditions: Homo sapiens, 18 hours exposure, CCK-8 assay, n = 9
# Method: Anti-angiogenic drugs were screened in a concentration gradient in the HUVEC culture assay. […] Cell proliferation was assessed using a CCK-8 assay (Dojindo). Statistical analysis by two-way Anova. Error represents the standard error of the mean.
# HUVEC cells were purchased from ATCC (Manassas, VA) and cultured as previously described. No further authentication was performed. Cells were seeded at 6.5 × 10^4 cells per well in 100 μL of medium per well. Drugs were diluted in prewarmed DMEM. Serial dilutions were performed from 1000–0.1 nM. The cells were left to grow for 18 hours with exposure to vehicle control (DMSO) or drugs. Experiments were done in triplicate each time. Cellular proliferation was assessed using a CCK-8 assay (Dojindo, Rockville, MD). All plates were read at 450 nm.
# chicken embryos = test system: chicken embryos
# Method: We then administered the compounds to developing chicken embryos to observe any teratogenic effects. […] At 48 hours post drug application both the survival rate and the incidence of defects were analyzed. A range of concentrations was tested to determine the effects and optimal concentration that was not 100% lethal.
# Fertilized white leghorn chicken embryos purchased from Henry Stewart Ltd. (Herefordshire, United Kingdom) were maintained in an incubator as described previously. At Hamburger and Hamilton stage 18–20 (E2.5-3)[54] the eggs were windowed and the embryos were prepared for drug exposure. To establish a dose response the drugs were applied once to the embryos and growth was monitored as described previously. In a second set of experiments, filter paper squares were cut 100 μm × 100 μm and soaked in the compound of interest for 10 minutes. While the filter paper squares absorbed the solution, embryonic membranes were removed and the sponge was then placed onto the limb bud. The eggs were sealed with tape and returned to an incubator. The embryos were checked daily for developmental defects and to ensure the filter paper squares remained in place. Control embryos were treated with 100 μL PBS with 0.1% DMSO. Embryos were removed from the eggs and fixed in 5% TCA at 4 degrees for 24 hours. Embryos were then washed in alcian blue for 8 hours, and placed in acid ethanol over night before being dehydrated in 100% ethanol for three one hour treatments. The tissue was then cleared in methyl salicylate. Cartilage was imaged and subsequently measured using a graticule scale and ImageJ. A minimum of 8 embryos was used per drug, per concentration. All animal work was licensed and carried out in accordance with and with approval of UK Home Office and Institutional ethical and welfare guidelines.
# [1] = test system: developing limb bud of chicken embryos; assay: Drug-soaked filter paper square placed on the developing limb bud of chicken embryos; type: in vivo; conditions: filter paper square soaked in drug, HH St 18–20
# Source text: Given the potency of these drugs and the resulting embryonic lethality we focused our attention on how the drugs affect limb development. The developing limb bud is a well studied morphological assay[22][41][42] ideal for understanding mechanisms of embryogenesis and how drugs influence this process. Moreover, other anti-angiogenic drugs like thalidomide and valproate cause limb defects. […] We therefore established a method where a small filter paper square soaked in the drug of interest could be placed directly onto the limb tissue of the embryo, thus avoiding or minimalizing exposure of the drug to other developing tissue/structures and retaining high viability. Filter paper squares were soaked for 10 minutes prior to removal of the embryonic membrane of HH St 18–20 (E2.5-E3) chicken embryos, then placed over the developing limb bud. Filter paper squares soaked in 0.1% DMSO had no effect on limb outgrowth.
# The tissue was then cleared in methyl salicylate.
# [2] = test system: fli1:EGFP zebrafish embryos; assay: fli1:EGFP zebrafish embryo exposure: survival and intersegmental vessel development; type: in vivo
# Method: We then examined the extent and nature of the anti-angiogenic effects of the compounds using transgenic fli1:EGFP zebrafish embryos. The vasculature of these fish is tagged with EGFP and the transparency of the zebrafish allows for visualization of the forming blood vessels and any effect of anti-cancer drugs on their development over time (Fig. 4). A known anti-angiogenic and teratogenic compound (CPS49) was screened alongside the drugs as a positive control at 10 μg/mL (30 μM), a previously established anti-angiogenic concentration.
# fli1:EGFP zebrafish were obtained from the Zebrafish international Resource Centre[29] and maintained in an approved aquarium habitat at 28 °C. At 24 hours post fertilization (hpf) the embryos were checked for GFP expression using a fluorescent microscope and manually dechorionated with forceps, exposed to either a vehicle control, or an anti-angiogenic anti-cancer compound (at 24 hpf) for 24 hours and imaged at 48 hpf. At this point the embryos were anaesthetized in 0.1% tricaine and the length and number of intersegmental vessels (ISV) were quantified as previously described. A minimum of 10 embryos were screened per drug, per concentration, and experiments were performed in triplicate.
# [3] = human; cited from earlier work
# Mouse = conditions: cited from earlier work
smiles,measurement,setting,value
CO[C@@H]1[C@H](OC(=O)NC(=O)CCl)CC[C@]2(CO2)[C@H]1[C@@]1(C)O[C@@H]1CC=C(C)C [TNP-470],IC50,HUVEC cells,< 10 nM
same,Defects produced in chicken embryos,chicken embryos; Table 1 summary,"Embryolethality, cranial hemorrhaging, micropthalmia, limb defects, spine"
same,defects observed in treated embryos,"chicken embryos; global treatment, surviving embryos",twisting of the spinal cord
same,effect on limb after direct application to limb bud,[1],Tissue was necrotic-looking
same,treated zebrafish killed,[2]; 200 μg/mL,90%
same,vessel outgrowth,[2]; 200 μg/mL,reducing vessel outgrowth
same,effect at low doses,[2]; <200 μg/mL,little effect
same,relative potency in reducing vessel outgrowth,"[2]; concentration gradient, within 24 hours of drug exposure",no effect until 200 μg/mL
same,Clinical Toxicities,[3],Neurotoxicity
same,Defects produced,Mouse; Mouse/Mice,Complete failure of embryonic growth
same,Systemic exposure (AUC) compared to human exposure,Mouse; Mouse/Mice,Below human
same,effect during pregnancy in mouse models,Mouse,"anti-angiogenic, disrupting newly developing blood vessels in the placenta and embryonic eye"
